The experiment has as its system SH-SY5Y cells transfected with Arf6 WT/Q67L. Briefly: Uptake in cells transfected with Arf6 WT or Q67L (confocal imaging). The conditions noted are these: SH-SY5Y 24 h post transfection, 1 µM HF488-labelled Aβ 24 h, confocal microscopy. In kind it is cell-based, human. As for the experimental part: The samples were washed 1x in serum free medium prior to incubation with Aβ peptides and/or other reagents also in serum free medium that was supplemented with 30 mM HEPES and 2% B-27. For experiments including Trf B-27 was omitted as it, according to the media formulation provided by the manufacturer, contains unlabelled Trf that interferes with the experiment. Prior to imaging, cells were stained with 50 nM LysoTracker Deep Red for 30 min and 5 µg/ml Hoechst 33342 was added during the last 10 min of incubation. The cells were thereafter washed 1x, treated with 5 µg/ml FM 4–64 and imaged immediately (for labelling of cellular membrane) or after 10 min incubation at 37 °C (for labelling of cellular membrane and endocytic vesicles). […] The scanner unit was mounted onto a Leica DMIRB microscope equipped with an oil immersion 63x NA 1.47 Leica HCX PL APO objective for imaging and co-localisation analysis, or a 40x NA 0.55 Leica N PLAN L CORR air objective for quantification of peptide uptake. The sample was excited and detected sequentially with appropriate excitation laser lines and emission filters. […]

Take “Aβ(1–40): Synthetic 40 residue amyloid-β peptide conjugated to HiLyte Fluor HF488 (or HF647) at the N-terminus, from Anaspec”: the “Aβ uptake in Arf6 Q67L versus wild-type Arf6 overexpressing cells” value is listed as “no difference”. Regarding “Aβ(1–42): Synthetic 42 residue amyloid-β peptide conjugated to HiLyte Fluor HF488 (or HF647) at the N-terminus, from Anaspec”, the “Aβ uptake in Arf6 Q67L versus wild-type Arf6 overexpressing cells” value is “no difference”.
